Values joined by “and” are separate entries in the source; they are usually repeats but may differ in a detail not shown here. Equal values may be shown once.
Experiments:
Assay type in all cases: physicochemical
[1] = Solid stability measurements (appearance, assay and total related substances by HPLC); settings: for Remaining (%): one value for both samples, vs −20° C. control; for Appearance / TRS (%): samples 1 and 2
Experimental: The detailed chromatographic conditions are listed hereinbelow. The typical retention time of febuxostat main peak is 8.2 min. [table] Testing conditions: 40° C., 60° C., 40° C./RH 75%, 60° C./RH 75%, light Testing procedure: About 3 mg of a febuxostat form were weighed in a glass vial and stored under the different conditions for 1 week and 2 weeks, separately. The same febuxostat form was stored at −20° C. as control. The test was conducted in duplication. The physical appearance, assay and total related substances of each of the febuxostat forms were measured by HPLC at the end of the first and second weeks.

[2] = Hygroscopicity measurements (DVS sorption/desorption profiles); settings: 25° C.
Experimental: The sorption/desorption profiles of the forms of the present invention were tested at 25° C. under 0-90% relative humidity. The forms of the present invention were classified according to the following criteria: Deliquescent: Sufficient water is absorbed to form a liquid. […] Hygroscopic: Increase in mass is less than 15% and equal to or greater than 2%. Slightly hygroscopic: Increase in mass is less than 2% and equal to or greater than 0.2%. Non-hygroscopic: Increase in mass is less than 0.2%.

[3] = Physical stability measurements (XRPD, DSC, TGA)
Experimental: Testing conditions: 40° C., 60° C., 40° C./RH 75%, 60° C./RH 75%, light
Testing procedure: About 50 mg of a febuxostat form were weighed in glass vial for testing the physical stability and were stored under different conditions for 1 week and 2 weeks, separately. The same febuxostat form was stored at −20° C. as control. XRPD, DSC and TGA of each of the febuxostat forms were measured at the end of the first and second weeks.

[4] = Bulk and tapped density measurements
Experimental: Bulk density testing: A febuxostat form in an amount which is sufficient to complete the test was passed through a 1.0 mm (No. 18) screen to break up agglomerates that may have formed during storage. The febuxostat form was then weighed (M) and the powder was added into a 10 mL graduated cylinder. The powder was carefully leveled without compacting, and the unsettled apparent volume, Vo, was read. The bulk density, in g per mL, was calculated by the formula: Bulk Density=M/Vo Tapped density testing: A febuxostat form in an amount which is sufficient to complete the test was passed through a 1.0 mm (No. 18) screen to break up agglomerates that may have formed during storage. The febuxostat form was then weighed and the powder was added into a 10 mL graduated cylinder. The powder was carefully leveled without compacting. The cylinder was tapped 500 times initially and the tapped volume, Va, was measured to the nearest graduated unit. The tapping was then repeated for additional 750 times and the tapped volume, Vb, was measured to the nearest graduated unit. If the difference between the two volumes was less than 2%, Vb was taken as the final tapped volume, Vf. The tapped density, in g per mL, was calculated by the formula: Tapped Density=M/Vf

SMILES: Cc1nc(-c2ccc(OCC(C)C)c(C#N)c2)sc1C(=O)O [Form XI, 2-(3-cyano-4-isobutoxyphenyl)-4-methyl-5-thiazolecarboxylic acid]
- change of assay and TRS (in words) ([1]; 40° C., 60° C., 40° C./75% RH, 60° C./75% RH at end of the first and second weeks): no significant change
- Remaining (%) ([1]; 40° C., 7 d): 99.02%
- Appearance ([1]; 40° C., 7 d): No change
- TRS (%) ([1]; 40° C., 7 d): 1.25% and 1.24%
- Remaining (%) ([1]; 40° C., 14 d): 100.12%
- Appearance ([1]; 40° C., 14 d): No change
- TRS (%) ([1]; 40° C., 14 d): 1.26% and 1.27%
- Remaining (%) ([1]; 40° C./75% RH, 7 d): 99.02%
- Appearance ([1]; 40° C./75% RH, 7 d): No change
- TRS (%) ([1]; 40° C./75% RH, 7 d): 1.28%
- Remaining (%) ([1]; 40° C./75% RH, 14 d): 100.75%
- Appearance ([1]; 40° C./75% RH, 14 d): No change
- TRS (%) ([1]; 40° C./75% RH, 14 d): 1.30% and 1.29%
- Remaining (%) ([1]; 60° C., 7 d): 98.56%
- Appearance ([1]; 60° C., 7 d): No change
- TRS (%) ([1]; 60° C., 7 d): 1.31% and 1.30%
- Remaining (%) ([1]; 60° C., 14 d): 99.72%
- Appearance ([1]; 60° C., 14 d): No change
- TRS (%) ([1]; 60° C., 14 d): 1.33%
- Remaining (%) ([1]; 60° C./75% RH, 7 d): 98.44%
- Appearance ([1]; 60° C./75% RH, 7 d): No change
- TRS (%) ([1]; 60° C./75% RH, 7 d): 1.33% and 1.31%
- Remaining (%) ([1]; 60° C./75% RH, 14 d): 99.82%
- Appearance ([1]; 60° C./75% RH, 14 d): No change
- TRS (%) ([1]; 60° C./75% RH, 14 d): 1.35% and 1.36%
- Remaining (%) ([1]; Light, 7 d): 96.26%
- Appearance ([1]; Light, 7 d): Light yellow
- TRS (%) ([1]; Light, 7 d): 1.86% and 2.09%
- Remaining (%) ([1]; Light, 14 d): 95.06%
- Appearance ([1]; Light, 14 d): Light yellow
- TRS (%) ([1]; Light, 14 d): 4.88% and 4.32%
- Appearance ([1]; −20° C. (control), 7 d): No change
- TRS (%) ([1]; −20° C. (control), 7 d): 1.22%
- Appearance ([1]; −20° C. (control), 14 d): No change
- TRS (%) ([1]; −20° C. (control), 14 d): 1.23%
- Hygroscopicity classification ([2]; 0-90% relative humidity): hygroscopic
- Change in Mass (%) - ref, Desorption ([2]; Target % P/P0 0.0): −0.052%
- Change in Mass (%) - ref, Sorption ([2]; Target % P/P0 0.0): 0.001%
- Change in Mass (%) - ref, Desorption ([2]; Target % P/P0 10.0): 0.973%
- Change in Mass (%) - ref, Hysteresis ([2]; Target % P/P0 10.0): 0.164%
- Change in Mass (%) - ref, Sorption ([2]; Target % P/P0 10.0): 0.810%
- Change in Mass (%) - ref, Desorption ([2]; Target % P/P0 20.0): 1.210%
- Change in Mass (%) - ref, Hysteresis ([2]; Target % P/P0 20.0): 0.146%
- Change in Mass (%) - ref, Sorption ([2]; Target % P/P0 20.0): 1.064%
- Change in Mass (%) - ref, Desorption ([2]; Target % P/P0 30.0): 1.425%
- Change in Mass (%) - ref, Hysteresis ([2]; Target % P/P0 30.0): 0.203%
- Change in Mass (%) - ref, Sorption ([2]; Target % P/P0 30.0): 1.222%
- Change in Mass (%) - ref, Desorption ([2]; Target % P/P0 40.0): 1.560%
- Change in Mass (%) - ref, Hysteresis ([2]; Target % P/P0 40.0): 0.150%
- Change in Mass (%) - ref, Sorption ([2]; Target % P/P0 40.0): 1.410%
- Change in Mass (%) - ref, Desorption ([2]; Target % P/P0 50.0): 1.728%
- Change in Mass (%) - ref, Hysteresis ([2]; Target % P/P0 50.0): 0.169%
- Change in Mass (%) - ref, Sorption ([2]; Target % P/P0 50.0): 1.559%
- Change in Mass (%) - ref, Desorption ([2]; Target % P/P0 60.0): 1.948%
- Change in Mass (%) - ref, Hysteresis ([2]; Target % P/P0 60.0): 0.166%
- Change in Mass (%) - ref, Sorption ([2]; Target % P/P0 60.0): 1.782%
- Change in Mass (%) - ref, Desorption ([2]; Target % P/P0 70.0): 2.187%
- Change in Mass (%) - ref, Hysteresis ([2]; Target % P/P0 70.0): 0.130%
- Change in Mass (%) - ref, Sorption ([2]; Target % P/P0 70.0): 2.057%
- Change in Mass (%) - ref, Desorption ([2]; Target % P/P0 80.0): 2.503%
- Change in Mass (%) - ref, Hysteresis ([2]; Target % P/P0 80.0): 0.089%
- Change in Mass (%) - ref, Sorption ([2]; Target % P/P0 80.0): 2.414%
- Change in Mass (%) - ref, Desorption ([2]; Target % P/P0 90.0): 3.111%
- Change in Mass (%) - ref, Sorption ([2]; Target % P/P0 90.0): 3.111%
- physical stability (XRPD, DSC, TGA) ([3]; 40° C., 60° C. and light at the end of the first and second week): stable
- physical stability (XRPD, DSC, TGA), form conversion ([3]; 40° C./75% RH at the end of the first week): completely converted to form G
- physical stability (XRPD, DSC, TGA), form conversion ([3]; 40° C./75% RH at the end of the second week): completely converted to form G
- physical stability (XRPD, DSC, TGA), form conversion ([3]; 60° C./75% RH at the end of the first and second weeks): completely converted to form G
- Bulk Density [4]: 0.346 g/mL
- Tapped Density [4]: 0.553 g/mL
- bulk and tapped densities (in words) ([4]; compared among forms V, IX, XI and form G): adequate bulk and tapped densities

Source: US20130225830A1, “POLYMORPHS OF FEBUXOSTAT” (MAPI PHARMA LIMITED, priority 2010, published 2013)
